39 molecules from patent US10766882B2, “1,2-naphthoquinone based derivative and method of preparing the same” (YUNGJIN PHARM. CO., LTD., priority 2013, dated 2020) can be followed below.

Chain of NQO1 protein (P15559 whole entry, species assumed): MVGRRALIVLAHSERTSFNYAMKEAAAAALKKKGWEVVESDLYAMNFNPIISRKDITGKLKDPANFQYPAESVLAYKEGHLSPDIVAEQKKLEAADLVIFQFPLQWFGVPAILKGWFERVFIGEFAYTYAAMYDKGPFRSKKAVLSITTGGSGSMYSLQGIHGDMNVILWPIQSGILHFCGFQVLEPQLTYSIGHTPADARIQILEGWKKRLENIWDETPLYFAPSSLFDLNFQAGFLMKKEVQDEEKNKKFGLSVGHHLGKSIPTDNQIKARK

For the test, the target named is NQO1 protein (Homo sapiens, UniProt P15559). In words: NQO1 activity measurement (cytochrome C reduction). Format: biochemical. The note with it: 5 ng NQO1 protein, 200 μM NADH, 77 μM cytochrome C, 37° C., absorbance 550 nm for 10 minutes. The procedure:
An enzyme reaction solution included 25 mM Tris/HCl (pH 7.4), 0.14% bovine serum albumin, 200 μM NADH, 77 μM cytochrome C, and 5 ng of NQO1 protein. Enzymatic reaction was initiated by adding NADH and performed at 37° C. In this regard, a reaction rate was measured by observing absorbance, which was increased due to reduction of cytochrome C, at 550 nm for 10 minutes and NQO1 activity was represented as an amount of reduced cytochrome C [nmol cytochrome C reduced/min/μg protein].
Extinction coefficient for cytochrome C:21.1 mmol/L/cm=21.1 μmol/ml/cm
Regarding `CC(C)c1nc2c(n1CCN1CCOCC1)C(=O)C(=O)c1ccccc1-2` [Example 66], the “NQO1 activity (5 μM, [nmol cytochrome C reduced/min/μg protein])” value is 56.0 nmol cytochrome C reduced/min/μg protein.

Regarding `CC(C)c1nc2c(n1CCO)C(=O)C(=O)c1ccccc1-2` [Example 68, 3-(2-hydroxyethyl)-2-isopropyl-3H-naphtho[2,1-d]imidazole-4,5-dione], the “NQO1 activity (5 μM, [nmol cytochrome C reduced/min/μg protein])” value is given as 143.0 nmol cytochrome C reduced/min/μg protein.

For the molecule `CN(C)Cc1nc2c([nH]1)C(=O)C(=O)c1ccccc1-2` [Example 59], the “NQO1 activity (5 μM, [nmol cytochrome C reduced/min/μg protein])” value is recorded as 149.3 nmol cytochrome C reduced/min/μg protein.

In the case of `CN1CCN(c2nc3c([nH]2)C(=O)C(=O)c2ccccc2-3)CC1` [Example 75, 2-(4-methylpiperazin-1-yl)-3H-naphtho[2,1-d]imidazole-4,5-dione], the “NQO1 activity (5 μM, [nmol cytochrome C reduced/min/μg protein])” value is 26.9 nmol cytochrome C reduced/min/μg protein.

As to `CC(C)c1nc2c(n1Cc1ccncc1)C(=O)C(=O)c1ccccc1-2` [Example 81], the “NQO1 activity (5 μM, [nmol cytochrome C reduced/min/μg protein])” value is reported as 169.4 nmol cytochrome C reduced/min/μg protein.

As to `Cc1cc(F)ccc1N(Cc1nc2c([nH]1)C(=O)C(=O)c1ccccc1-2)C(=O)OC(C)(C)C` [Example 52], the “NQO1 activity (5 μM, [nmol cytochrome C reduced/min/μg protein])” value is 60.3 nmol cytochrome C reduced/min/μg protein.

As for `CC(C)c1nc2c(n1CCCl)C(=O)C(=O)c1ccccc1-2` [Example 64], the “NQO1 activity (5 μM, [nmol cytochrome C reduced/min/μg protein])” value is 189.5 nmol cytochrome C reduced/min/μg protein.

As for `O=C1C(=O)c2[nH]c(-c3cccnc3)nc2-c2ccccc21` [Example 87], the “NQO1 activity (5 μM, [nmol cytochrome C reduced/min/μg protein])” value is listed as 94.7 nmol cytochrome C reduced/min/μg protein.

As for `CC(c1nc2c([nH]1)C(=O)C(=O)c1ccccc1-2)N1CCOCC1` (stereo not drawn) [Example 61], the “NQO1 activity (5 μM, [nmol cytochrome C reduced/min/μg protein])” value is reported as 204.1 nmol cytochrome C reduced/min/μg protein.

For `CC(C)c1nc2c(n1C(C)C)C(=O)C(=O)c1ccccc1-2` [Example 85], the “NQO1 activity (5 μM, [nmol cytochrome C reduced/min/μg protein])” value is 135.4 nmol cytochrome C reduced/min/μg protein.

Turning to `CC(c1nc2c([nH]1)C(=O)C(=O)c1ccccc1-2)N1CCCC1` (stereo not drawn) [Example 65], the “NQO1 activity (5 μM, [nmol cytochrome C reduced/min/μg protein])” value was 93.5 nmol cytochrome C reduced/min/μg protein.

`CCc1nc2c(n1CC)C(=O)C(=O)c1ccccc1-2` [Example 86]: the “NQO1 activity (5 μM, [nmol cytochrome C reduced/min/μg protein])” value is recorded as 220.0 nmol cytochrome C reduced/min/μg protein.

On to `CC(C)c1nc2c(n1Cn1c(C(C)C)nc3c1C(=O)C(=O)c1ccccc1-3)C(=O)C(=O)c1ccccc1-2` [Example 69], for which the “NQO1 activity (5 μM, [nmol cytochrome C reduced/min/μg protein])” value is listed as 160.5 nmol cytochrome C reduced/min/μg protein.

As for `O=C1C(=O)c2[nH]c(C3CCCO3)nc2-c2ccccc21` (stereo not drawn) [Example 73], the “NQO1 activity (5 μM, [nmol cytochrome C reduced/min/μg protein])” value is 180.8 nmol cytochrome C reduced/min/μg protein.

For `Cc1cc(F)ccc1OCc1nc2c([nH]1)C(=O)C(=O)c1ccccc1-2` [Example 50], the “NQO1 activity (5 μM, [nmol cytochrome C reduced/min/μg protein])” value is reported as 100.6 nmol cytochrome C reduced/min/μg protein.

Consider `O=C1C(=O)c2[nH]c(N3CCOCC3)nc2-c2ccccc21` [Example 67, 2-morpholino-3H-naphtho[2,1-d]imidazole-4,5-dione], for which the “NQO1 activity (5 μM, [nmol cytochrome C reduced/min/μg protein])” value is 143.1 nmol cytochrome C reduced/min/μg protein.

`CC(C)c1nc2c([nH]1)C(=O)C(=O)c1cc(NC(=O)C3CC3)ccc1-2` [Example 20]: the “NQO1 activity (5 μM, [nmol cytochrome C reduced/min/μg protein])” value is 6.4 nmol cytochrome C reduced/min/μg protein.

Turning to `Cn1c(COc2ccc(F)cc2)nc2c1C(=O)C(=O)c1ccccc1-2` [Example 80], the “NQO1 activity (5 μM, [nmol cytochrome C reduced/min/μg protein])” value is given as 162.6 nmol cytochrome C reduced/min/μg protein.

On to `CC(C)c1nc2c(n1CCN(C)C)C(=O)C(=O)c1ccccc1-2` [Example 72], for which the “NQO1 activity (5 μM, [nmol cytochrome C reduced/min/μg protein])” value is reported as 51.0 nmol cytochrome C reduced/min/μg protein.

Consider `CC(C)c1nc2c(n1Cc1ccccn1)C(=O)C(=O)c1ccccc1-2` [Example 84], for which the “NQO1 activity (5 μM, [nmol cytochrome C reduced/min/μg protein])” value was 172.0 nmol cytochrome C reduced/min/μg protein.

On to `CCc1nc2c(n1CC)C(=O)C(=O)c1cc(F)ccc1-2` [Example 88], for which the “NQO1 activity (5 μM, [nmol cytochrome C reduced/min/μg protein])” value is reported as 187.4 nmol cytochrome C reduced/min/μg protein.

For the molecule `O=C1C(=O)c2[nH]c(COc3ccc(F)cc3)nc2-c2ccccc21` [Example 79], the “NQO1 activity (5 μM, [nmol cytochrome C reduced/min/μg protein])” value is 96.9 nmol cytochrome C reduced/min/μg protein.

In the case of `O=C1C(=O)c2[nH]c(-c3nc4c([nH]3)C(=O)C(=O)c3ccccc3-4)nc2-c2ccccc21` [Example 92], the “NQO1 activity (5 μM, [nmol cytochrome C reduced/min/μg protein])” value is given as 186.8 nmol cytochrome C reduced/min/μg protein.

Regarding `CC(C)(O)c1nc2c([nH]1)C(=O)C(=O)c1ccccc1-2` [Example 76], the “NQO1 activity (5 μM, [nmol cytochrome C reduced/min/μg protein])” value is on record as 183.5 nmol cytochrome C reduced/min/μg protein.

In the case of `CCOc1nc2c(n1C)C(=O)C(=O)c1ccccc1-2` [Example 74], the “NQO1 activity (5 μM, [nmol cytochrome C reduced/min/μg protein])” value is given as 193.5 nmol cytochrome C reduced/min/μg protein.

In the case of `O=C1C(=O)c2[nH]c(CCc3ccc(F)cc3)nc2-c2ccccc21` [Example 54], the “NQO1 activity (5 μM, [nmol cytochrome C reduced/min/μg protein])” value was 126.9 nmol cytochrome C reduced/min/μg protein.

As to `CCC(CC)c1nc2c([nH]1)C(=O)C(=O)c1ccccc1-2` [Example 77], the “NQO1 activity (5 μM, [nmol cytochrome C reduced/min/μg protein])” value was 223.3 nmol cytochrome C reduced/min/μg protein.

For the molecule `CC(c1nc2c([nH]1)C(=O)C(=O)c1ccccc1-2)N(C)C` (stereo not drawn) [Example 60], the “NQO1 activity (5 μM, [nmol cytochrome C reduced/min/μg protein])” value is on record as 140.1 nmol cytochrome C reduced/min/μg protein.

Turning to `CCc1nc2c(n1C(C)C)C(=O)C(=O)c1cc(F)ccc1-2` [Example 89], the “NQO1 activity (5 μM, [nmol cytochrome C reduced/min/μg protein])” value was 145.0 nmol cytochrome C reduced/min/μg protein.

For the molecule `CC(F)(F)c1nc2c([nH]1)C(=O)C(=O)c1ccccc1-2` [Example 82], the “NQO1 activity (5 μM, [nmol cytochrome C reduced/min/μg protein])” value is 70.2 nmol cytochrome C reduced/min/μg protein.

Take `CN(Cc1nc2c([nH]1)C(=O)C(=O)c1ccccc1-2)c1ccccc1` [Example 51, 2-((methyl (phenyl)amino)methyl)-3H-naphtho[2,1-d]imidazole-4,5-dione]: the “NQO1 activity (5 μM, [nmol cytochrome C reduced/min/μg protein])” value is recorded as 140.8 nmol cytochrome C reduced/min/μg protein.

In the case of `O=C1C(=O)c2[nH]c(Cl)nc2-c2ccccc21` [Example 70, 2-chloro-3H-naphtho[2,1-d]imidazole-4,5-dione], the “NQO1 activity (5 μM, [nmol cytochrome C reduced/min/μg protein])” value is 83.9 nmol cytochrome C reduced/min/μg protein.

In the case of `Cc1cc(F)ccc1NCc1nc2c([nH]1)C(=O)C(=O)c1ccccc1-2` [Example 53], the “NQO1 activity (5 μM, [nmol cytochrome C reduced/min/μg protein])” value is on record as 112.6 nmol cytochrome C reduced/min/μg protein.

In the case of `CCOc1nc2c([nH]1)C(=O)C(=O)c1ccccc1-2` [Example 71], the “NQO1 activity (5 μM, [nmol cytochrome C reduced/min/μg protein])” value is given as 124.7 nmol cytochrome C reduced/min/μg protein.

Regarding `CC(C)c1nc2c(n1Cc1cccnc1)C(=O)C(=O)c1ccccc1-2` [Example 83], the “NQO1 activity (5 μM, [nmol cytochrome C reduced/min/μg protein])” value is given as 162.5 nmol cytochrome C reduced/min/μg protein.

With `CN(C)c1nc2c([nH]1)C(=O)C(=O)c1ccccc1-2` [Example 62, 2-(dimethylamino)-3H-naphtho[2,1-d]imidazole-4,5-dione], the “NQO1 activity (5 μM, [nmol cytochrome C reduced/min/μg protein])” value is recorded as 113.3 nmol cytochrome C reduced/min/μg protein.

For `CC(O)c1nc2c(n1C(C)C)C(=O)C(=O)c1ccccc1-2` (stereo not drawn) [Example 91], the “NQO1 activity (5 μM, [nmol cytochrome C reduced/min/μg protein])” value is on record as 206.9 nmol cytochrome C reduced/min/μg protein.

Regarding `CCc1nc2c(n1C(C)C)C(=O)C(=O)c1ccccc1-2` [Example 90], the “NQO1 activity (5 μM, [nmol cytochrome C reduced/min/μg protein])” value is given as 241.3 nmol cytochrome C reduced/min/μg protein.

`O=C1C(=O)c2[nH]c(N3CCCC3)nc2-c2ccccc21` [Example 63, 2-(pyrrolidin-1-yl)-3H-naphtho[2,1-d]imidazole-4,5-dione]: the “NQO1 activity (5 μM, [nmol cytochrome C reduced/min/μg protein])” value was 40.3 nmol cytochrome C reduced/min/μg protein.
